Experimental data reported in US20050137182A1, “Novel crystalline form of cefdinir” (priority 2003, published 2005).
Several values for one entry are separate records, joined by “and”; a condition that tells them apart may be missing. Equal entries are not always repeated. Entries after “also recorded” stand apart in the source; their conditions may differ.

Key:
Type in all cases: physicochemical
[1] = Accelerated storage stability, 40° C. ± 2° C./75% RH ± 5% RH; conditions: for Assay (% w/w, by HPLC OAB), % change / Total RS (% area normalization, by HPLC) / Assay (% w/w, by HPLC OAB): accelerated 40° C. ± 2° C./75% RH ± 5% RH
[2] = Real time storage stability, 25° C. ± 2° C./60% RH ± 5% RH; conditions: for Assay (% w/w, by HPLC OAB), % change / Total RS (% area normalization, by HPLC) / Assay (% w/w, by HPLC OAB): real time 25° C. ± 2° C./60% RH ± 5% RH
[3] = Stress stability study, HPLC purity and assay before and after; conditions: 60° C.±2° C. for 15 days
Experimental: Stress stability studies of cefdinir crystal B were performed by keeping samples of cefdinir crystal B under the conditions of 60° C.±2° C. for 15 days, and the purity and assay of the samples were determined before and after the stress test by high performance liquid chromatography. […] Table 3 summaries the results of the stress test studies.

[4] = 1 Month, listed as Crystal B Sample 1
[5] = 2 Months, listed as Crystal B Sample 1
[6] = 2 Months, listed as Crystal B Sample 2
[7] = 3 Months, listed as Crystal B Sample 1
[8] = 3 Months, listed as Crystal B Sample 2
[9] = Initial, listed as Crystal B Sample 1
[10] = Initial, listed as Crystal B Sample 2

C=CC1=C(C(=O)O)N2C(=O)[C@@H](NC(=O)/C(=N\O)c3csc(N)n3)[C@H]2SC1 [Cefdinir Crystal A, 7β-[(Z)-2-(2-amino-4-thiazolyl)-2-hydroxyiminoacetamido]-3-vinyl-3-cephem-4-carboxylic acid, reference compound]
Assay (% w/w, by HPLC OAB), % change ([1]; 1 Month): −0.5% | Total RS (% area normalization, by HPLC) ([1]; 1 Month): 1.98 % area | Assay (% w/w, by HPLC OAB), % change ([1]; 2 Months): −1.6% | Total RS (% area normalization, by HPLC) ([1]; 2 Months): 2.25 % area | Assay (% w/w, by HPLC OAB), % change ([1]; 3 Months): −1.8% | Total RS (% area normalization, by HPLC) ([1]; 3 Months): 2.06 % area | Assay (% w/w, by HPLC OAB) ([1]; Initial): 96.3 % w/w | Total RS (% area normalization, by HPLC) ([1]; Initial): 0.82 % area | Change in the assay ([1]; after 3 months under accelerated storage conditions): about 1.8% | Assay (% w/w, by HPLC OAB), % change ([2]; 3 Months): −0.2% | Total RS (% area normalization, by HPLC) ([2]; 3 Months): 1.18 % area | Stability under normal storage conditions compared with the other crystal form (in words) ([2]; 25° C.±2° C./60% RH±5% RH, 3 months): as stable as crystal B | Assay (% w/w, by HPLC OAB) ([2]; Initial): 96.3 % w/w | Total RS (% area normalization, by HPLC) ([2]; Initial): 0.82 % area

C=CC1=C(C(=O)O)N2C(=O)[C@@H](NC(=O)/C(=N\O)c3csc(N)n3)[C@H]2SC1 [Cefdinir Crystal B, 7β-[(Z)-2-(2-amino-4-thiazolyl)-2-hydroxyiminoacetamido]-3-vinyl-3-cephem-4-carboxylic acid]
Assay (% w/w, by HPLC OAB), % change [1, 4]: 0.0% | Total RS (% area normalization, by HPLC) [1, 4]: 0.72 % area | Total RS (% area normalization, by HPLC) ([1]; 1 Month, listed as Crystal B Sample 2): 0.70 % area | Assay (% w/w, by HPLC OAB), % change [1, 5]: 0.0% | Total RS (% area normalization, by HPLC) [1, 5]: 1.10 % area | Assay (% w/w, by HPLC OAB), % change [1, 6]: 0.0% | Total RS (% area normalization, by HPLC) [1, 6]: 0.92 % area | Assay (% w/w, by HPLC OAB), % change [1, 7]: −0.1% | Total RS (% area normalization, by HPLC) [1, 7]: 0.90 % area | Assay (% w/w, by HPLC OAB), % change [1, 8]: −0.2% | Total RS (% area normalization, by HPLC) [1, 8]: 1.08 % area | Assay (% w/w, by HPLC OAB) [1, 9]: 99.9 % w/w | Total RS (% area normalization, by HPLC) [1, 9]: 0.64 % area | Assay (% w/w, by HPLC OAB) [1, 10]: 99.4 % w/w | Total RS (% area normalization, by HPLC) [1, 10]: 0.59 % area | Stability under accelerated storage conditions compared with the other crystal form (in words) ([1]; about 40° C., about 75% RH, up to 3 months): increased storage stability; also recorded: superior stability | Amount of compound that degrades ([1]; over a period of at least 3 months under accelerated storage conditions): ≤ 0.5% | Assay (by HPLC on anhydrous basis, % change) [3]: 0% | Degradation in stress test (in words) [3]: did not degrade | Purity (by HPLC, % change) [3]: −0.21% and −0.33% | Assay (% w/w, by HPLC OAB), % change [2, 7]: 0.0% | Total RS (% area normalization, by HPLC) [2, 7]: 0.53 % area | Assay (% w/w, by HPLC OAB), % change [2, 8]: 0.0% | Total RS (% area normalization, by HPLC) [2, 8]: 0.61 % area | Assay (% w/w, by HPLC OAB) [2, 9]: 99.9 % w/w | Total RS (% area normalization, by HPLC) [2, 9]: 0.64 % area | Assay (% w/w, by HPLC OAB) [2, 10]: 99.4 % w/w | Total RS (% area normalization, by HPLC) [2, 10]: 0.59 % area
